Measurements published in patent US20220119354A1, “DIAMINO-SUBSTITUTED PYRIDINES AND PYRIMIDINES AS HERBICIDES” (FMC Corporation, priority 2019, published 2022).

Tests used:
Format in all cases: in vivo
[1] = system: blackgrass (Alopecurus myosuroides); assay: Test A postemergence, blackgrass; settings: 0 to 100 scale
Outline: (§1)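 Greenhouse evaluation: treated and untreated pots were held about 10 d, then injury was rated visually from 0 (no effect) to 100 (complete control). Application was preemergence to soil or postemergence to seedlings 2–10 cm tall, using a non-phytotoxic solvent formulation with surfactant.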

[2] = system: ryegrass, Italian (Lolium multiflorum); assay: Test A postemergence, Italian ryegrass; settings: 0 to 100 scale
Outline: as §1

[3] = system: galium (catchweed bedstraw, Galium aparine); assay: Test A postemergence, galium; settings: 0 to 100 scale
Outline: as §1

[4] = system: foxtail, giant (Setaria faberii); assay: Test A preemergence, giant foxtail; settings: 0 to 100 scale
Outline: as §1

[5] = system: ragweed (common ragweed, Ambrosia elatior); assay: Test A postemergence, ragweed; settings: 0 to 100 scale
Outline: as §1

[6] = system: foxtail, giant (Setaria faberii); assay: Test A postemergence, giant foxtail; settings: 0 to 100 scale
Outline: as §1

kochia (Kochia scoparia) [7] = assay: Test A preemergence, kochia; settings: 0 to 100 scale
Outline: as §1

[8] = system: ryegrass, Italian (Lolium multiflorum); assay: Test A preemergence, Italian ryegrass; settings: 0 to 100 scale
Outline: as §1

[9] = system: barnyardgrass (Echinochloa crus-galli); assay: Test A preemergence, barnyardgrass; settings: 0 to 100 scale
Outline: as §1

[10] = system: wheat (Triticum aestivum); assay: Test A postemergence, wheat; settings: 0 to 100 scale
Outline: as §1

[11] = system: barnyardgrass (Echinochloa crus-galli); assay: Test A postemergence, barnyardgrass; settings: 0 to 100 scale
Outline: as §1

[12] = system: pigweed (Amaranthus retroflexus); assay: Test A preemergence, pigweed; settings: 0 to 100 scale
Outline: as §1

[13] = system: barnyardgrass (Echinochloa crus-galli); assay: Test B flooded paddy test, barnyardgrass; settings: Flood, 250 g ai/ha, applied to paddy water, 2-leaf stage, visual evaluation after 13 to 15 d
Outline: (§2)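 Growth to two leaves preceded treatment. Flooding to 3 cm above soil surface, then water-applied compound; depth kept constant. Scored visually relative to controls after 13–15 d greenhouse; 100 means full control.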

kochia (Kochia scoparia) [14] = assay: Test A postemergence, kochia; settings: 0 to 100 scale
Outline: as §1

[15] = system: ragweed (common ragweed, Ambrosia elatior); assay: Test A preemergence, ragweed; settings: 0 to 100 scale
Outline: as §1

corn (Zea mays) = assay: Test A postemergence, corn; settings: 0 to 100 scale
Outline: as §1

rice (Oryza sativa) = assay: Test B flooded paddy test, rice; settings: Flood, 250 g ai/ha, applied to paddy water, 2-leaf stage, visual evaluation after 13 to 15 d
Outline: as §2

[16] = system: sedge, umbrella (small-flower umbrella sedge, Cyperus difformis); assay: Test B flooded paddy test, umbrella sedge; settings: Flood, 250 g ai/ha, applied to paddy water, 2-leaf stage, visual evaluation after 13 to 15 d
Outline: as §2

[17] = system: ducksalad (Heteranthera limosa); assay: Test B flooded paddy test, ducksalad; settings: Flood, 250 g ai/ha, applied to paddy water, 2-leaf stage, visual evaluation after 13 to 15 d
Outline: as §2

[18] = system: pigweed (Amaranthus retroflexus); assay: Test A postemergence, pigweed; settings: 0 to 100 scale
Outline: as §1

Structure (SMILES) | Plant response rating, Blackgrass ([1]; 125 g ai/ha) | Plant response rating, Blackgrass ([1]; 500 g ai/ha) | Plant response rating, Ryegrass, Italian ([2]; 125 g ai/ha) | Plant response rating, Ryegrass, Italian ([2]; 500 g ai/ha) | Plant response rating, Galium ([3]; 125 g ai/ha) | Plant response rating, Galium ([3]; 500 g ai/ha) | Plant response rating, Foxtail, Giant ([4]; 125 g ai/ha) | Plant response rating, Foxtail, Giant ([4]; 500 g ai/ha) | Plant response rating, Ragweed ([5]; 125 g ai/ha) | Plant response rating, Ragweed ([5]; 500 g ai/ha) | Plant response rating, Foxtail, Giant ([6]; 125 g ai/ha) | Plant response rating, Foxtail, Giant ([6]; 500 g ai/ha) | Plant response rating, Kochia (kochia (Kochia scoparia) [7]; 125 g ai/ha) | Plant response rating, Kochia (kochia (Kochia scoparia) [7]; 500 g ai/ha) | Plant response rating, Ryegrass, Italian ([8]; 125 g ai/ha) | Plant response rating, Ryegrass, Italian ([8]; 500 g ai/ha) | Plant response rating, Barnyardgrass ([9]; 125 g ai/ha) | Plant response rating, Barnyardgrass ([9]; 500 g ai/ha) | Plant response rating, Wheat ([10]; 125 g ai/ha) | Plant response rating, Wheat ([10]; 500 g ai/ha) | further results
CC(Nc1ncc(C(F)(F)F)c(N)n1)C1Cc2ccccc2C1 (racemic) [Compound 6] | 0 | 10 | 0 | 20 | 40 | 70 | 90 | 100 | 20 | 40 | 0 | 20 | 80 | 100 | 30 | 70 | 0 | 60 | 0 | 0 | Plant response rating, Barnyardgrass ([11]; 125 g ai/ha): 10; Plant response rating, Barnyardgrass ([11]; 500 g ai/ha): 10; Plant response rating, Pigweed ([12]; 125 g ai/ha): 100; Plant response rating, Pigweed ([12]; 500 g ai/ha): 100; Plant response rating, Barnyardgrass (0 to 100 scale, 0 is no effect, 100 is complete control) [13]: 0; Plant response rating, Kochia (kochia (Kochia scoparia) [14]; 125 g ai/ha): 70; Plant response rating, Kochia (kochia (Kochia scoparia) [14]; 500 g ai/ha): 90; Plant response rating, Ragweed ([15]; 125 g ai/ha): 30; Plant response rating, Ragweed ([15]; 500 g ai/ha): 100; Plant response rating, Corn (corn (Zea mays); 125 g ai/ha): 0; Plant response rating, Corn (corn (Zea mays); 500 g ai/ha): 20; Plant response rating, Rice (0 to 100 scale, 0 is no effect, 100 is complete control) (rice (Oryza sativa)): 0; Plant response rating, Sedge, Umbrella (0 to 100 scale, 0 is no effect, 100 is complete control) [16]: 0; Plant response rating, Ducksalad (0 to 100 scale, 0 is no effect, 100 is complete control) [17]: 0; Plant response rating, Pigweed ([18]; 125 g ai/ha): 90; Plant response rating, Pigweed ([18]; 500 g ai/ha): 100
Nc1nc(NC(c2cc3ccccc3o2)C2CC2)ncc1C(F)(F)F (racemic) [Compound 18] | 20 | 80 | 0 | 30 | 40 | 90 | 90 | 90 | 20 | 70 | 0 | 70 | 0 | 60 | 50 | 50 | 50 | 80 | 20 | 10 | Plant response rating, Barnyardgrass ([11]; 125 g ai/ha): 10; Plant response rating, Barnyardgrass ([11]; 500 g ai/ha): 80; Plant response rating, Pigweed ([12]; 125 g ai/ha): 90; Plant response rating, Pigweed ([12]; 500 g ai/ha): 100; Plant response rating, Barnyardgrass (0 to 100 scale, 0 is no effect, 100 is complete control) [13]: 0; Plant response rating, Kochia (kochia (Kochia scoparia) [14]; 125 g ai/ha): 50; Plant response rating, Kochia (kochia (Kochia scoparia) [14]; 500 g ai/ha): 90; Plant response rating, Ragweed ([15]; 125 g ai/ha): 80; Plant response rating, Ragweed ([15]; 500 g ai/ha): 100; Plant response rating, Corn (corn (Zea mays); 125 g ai/ha): 0; Plant response rating, Corn (corn (Zea mays); 500 g ai/ha): 0; Plant response rating, Rice (0 to 100 scale, 0 is no effect, 100 is complete control) (rice (Oryza sativa)): 0; Plant response rating, Sedge, Umbrella (0 to 100 scale, 0 is no effect, 100 is complete control) [16]: 98; Plant response rating, Ducksalad (0 to 100 scale, 0 is no effect, 100 is complete control) [17]: 85; Plant response rating, Pigweed ([18]; 125 g ai/ha): 90; Plant response rating, Pigweed ([18]; 500 g ai/ha): 100
CC(Nc1ncc(C#N)c(N)n1)c1cc2ccccc2o1 (racemic) [Compound 19] | 20 | 60 | 0 | 20 | 0 | 70 | 0 | 20 | 0 | 0 | 0 | 0 | 0 | 20 | 0 | 60 | 0 | 0 | 0 | 0 | Plant response rating, Barnyardgrass ([11]; 125 g ai/ha): 0; Plant response rating, Barnyardgrass ([11]; 500 g ai/ha): 0; Plant response rating, Pigweed ([12]; 125 g ai/ha): 30; Plant response rating, Pigweed ([12]; 500 g ai/ha): 90; Plant response rating, Barnyardgrass (0 to 100 scale, 0 is no effect, 100 is complete control) [13]: 0; Plant response rating, Kochia (kochia (Kochia scoparia) [14]; 125 g ai/ha): 0; Plant response rating, Kochia (kochia (Kochia scoparia) [14]; 500 g ai/ha): 30; Plant response rating, Ragweed ([15]; 125 g ai/ha): 0; Plant response rating, Ragweed ([15]; 500 g ai/ha): 50; Plant response rating, Corn (corn (Zea mays); 125 g ai/ha): 0; Plant response rating, Corn (corn (Zea mays); 500 g ai/ha): 10; Plant response rating, Rice (0 to 100 scale, 0 is no effect, 100 is complete control) (rice (Oryza sativa)): 0; Plant response rating, Sedge, Umbrella (0 to 100 scale, 0 is no effect, 100 is complete control) [16]: 0; Plant response rating, Ducksalad (0 to 100 scale, 0 is no effect, 100 is complete control) [17]: 0; Plant response rating, Pigweed ([18]; 125 g ai/ha): 0; Plant response rating, Pigweed ([18]; 500 g ai/ha): 50
CCC(Nc1ncc(C#N)c(N)n1)c1cc2ccccc2o1 (racemic) [Compound 20] | 30 | 100 | 0 | 0 | 30 | 80 | 0 | 80 | 20 | 70 | 0 | 10 | 0 | 30 | 30 | 90 | 40 | 50 | 0 | 10 | Plant response rating, Barnyardgrass ([11]; 125 g ai/ha): 0; Plant response rating, Barnyardgrass ([11]; 500 g ai/ha): 40; Plant response rating, Pigweed ([12]; 125 g ai/ha): 50; Plant response rating, Pigweed ([12]; 500 g ai/ha): 100; Plant response rating, Barnyardgrass (0 to 100 scale, 0 is no effect, 100 is complete control) [13]: 0; Plant response rating, Kochia (kochia (Kochia scoparia) [14]; 125 g ai/ha): 50; Plant response rating, Kochia (kochia (Kochia scoparia) [14]; 500 g ai/ha): 90; Plant response rating, Ragweed ([15]; 125 g ai/ha): 40; Plant response rating, Ragweed ([15]; 500 g ai/ha): 60; Plant response rating, Corn (corn (Zea mays); 125 g ai/ha): 0; Plant response rating, Corn (corn (Zea mays); 500 g ai/ha): 20; Plant response rating, Rice (0 to 100 scale, 0 is no effect, 100 is complete control) (rice (Oryza sativa)): 0; Plant response rating, Sedge, Umbrella (0 to 100 scale, 0 is no effect, 100 is complete control) [16]: 0; Plant response rating, Ducksalad (0 to 100 scale, 0 is no effect, 100 is complete control) [17]: 0; Plant response rating, Pigweed ([18]; 125 g ai/ha): 60; Plant response rating, Pigweed ([18]; 500 g ai/ha): 90
